PubChem BioAssay AID2060907 (Molecular Pharmacology Branch, DTP, NCI, 2025)

Test system: 388556-164-R-J1-PDC complex spheroid viability
Experiment: Anticancer human tumor 388556-164-R-J1-PDC patient-derived colon adenocarcinoma cell line growth inhibition [RAS]
Details: for IC50: curve of first compound; for viability, T/C: stronger effect = lower value
Summary of the method: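 Multi-cell-type spheroids: tumor cells plus HUVEC endothelial cells and mesenchymal stem cells. RAS-pathway inhibitors were combined with targeted agents, each dosed in half-log steps down from clinical Cmax, or from 10 microM when Cmax was unknown.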

[1] = second compound 0.00316 µM, first compound 0.0316 µM
[2] = second compound 0.00316 µM, first compound 0.1 µM
[3] = second compound 0.00316 µM, first compound 0.316 µM
[4] = second compound 0.00316 µM, first compound 1 µM
[5] = second compound 0.00316 µM, first compound 3.16 µM
[6] = second compound 0.00316 µM, first compound 10 µM
[7] = second compound 0.01 µM, first compound 0.0316 µM
[8] = second compound 0.01 µM, first compound 0.1 µM
[9] = second compound 0.01 µM, first compound 0.316 µM
[10] = second compound 0.01 µM, first compound 1 µM
[11] = second compound 0.01 µM, first compound 3.16 µM
[12] = second compound 0.01 µM, first compound 10 µM
[13] = second compound 0.0316 µM, first compound 0.0316 µM
[14] = second compound 0.0316 µM, first compound 0.1 µM
[15] = second compound 0.0316 µM, first compound 0.316 µM
[16] = second compound 0.0316 µM, first compound 1 µM
[17] = second compound 0.0316 µM, first compound 3.16 µM
[18] = second compound 0.0316 µM, first compound 10 µM
[19] = second compound 0.1 µM, first compound 0.0316 µM
[20] = second compound 0.1 µM, first compound 0.1 µM
[21] = second compound 0.1 µM, first compound 0.316 µM
[22] = second compound 0.1 µM, first compound 1 µM
[23] = second compound 0.1 µM, first compound 3.16 µM
[24] = second compound 0.1 µM, first compound 10 µM
[25] = second compound 0.316 µM, first compound 0.0316 µM
[26] = second compound 0.316 µM, first compound 0.1 µM
[27] = second compound 0.316 µM, first compound 0.316 µM
[28] = second compound 0.316 µM, first compound 1 µM
[29] = second compound 0.316 µM, first compound 3.16 µM
[30] = second compound 0.316 µM, first compound 10 µM
[31] = second compound 1 µM, first compound 0.0316 µM
[32] = second compound 1 µM, first compound 0.1 µM
[33] = second compound 1 µM, first compound 0.316 µM
[34] = second compound 1 µM, first compound 1 µM
[35] = second compound 1 µM, first compound 3.16 µM
[36] = second compound 1 µM, first compound 10 µM
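Note: spheroids exposed to compound for 7 days before readout.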
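Throughout, for viability, T/C: 100% = DMSO vehicle control luminescence.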

For `CC(Nc1ccc2c(c1)OCCn1cc(N3C(=O)OCC3C(F)F)nc1-2)C(N)=O` (stereo unspecified) + C=CC(=O)N1CCN(c2nc(OCC3CCCN3C)nc3c(F)c(-c4nc(N)cc(C)c4C(F)(F)F)c(Cl)cc23)C(C)C1, the IC50 (second compound 0.00316 µM) was over 10 µM, the IC50 (second compound 0.01 µM) was over 10 µM and the IC50 (second compound 0.0316 µM) was over 10 µM. The IC50 (second compound 0.1 µM) was over 10 µM, the IC50 (second compound 0.316 µM) was over 10 µM and the IC50 (second compound 1 µM) was over 10 µM. For the same compound, the viability, T/C [1] was 108%, the viability, T/C [2] was 96.9% and the viability, T/C [3] was 88.6%. For the same compound, the viability, T/C [4] was 84.2%, the viability, T/C [5] was 69.8% and the viability, T/C [6] was 71.7%. The viability, T/C [7] was 103%, the viability, T/C [8] was 94.4% and the viability, T/C [9] was 85%. The viability, T/C [10] was 77.1%, the viability, T/C [11] was 74% and the viability, T/C [12] was 63.3%. For the same compound, the viability, T/C [13] was 109%, the viability, T/C [14] was 98.9% and the viability, T/C [15] was 92.1%. For the same compound, the viability, T/C [16] was 76%, the viability, T/C [17] was 81.5% and the viability, T/C [18] was 65.5%. For the same compound, the viability, T/C [19] was 110%, the viability, T/C [20] was 88% and the viability, T/C [21] was 83%. For the same compound, the viability, T/C [22] was 77.2%, the viability, T/C [23] was 74.8% and the viability, T/C [24] was 68.1%. The viability, T/C [25] was 105%, the viability, T/C [26] was 114% and the viability, T/C [27] was 85.4%. The viability, T/C [28] was 77.8%, the viability, T/C [29] was 69.9% and the viability, T/C [30] was 64.4%. It also gave a viability, T/C [31] of 99.4%, a viability, T/C [32] of 88.7% and a viability, T/C [33] of 84.1%. For the same compound, the viability, T/C [34] was 84.1%, the viability, T/C [35] was 75.3% and the viability, T/C [36] was 65.7%.

`CCN1CCN(Cc2ccc(Nc3ncc(F)c(-c4cc(F)c5nc(C)n(C(C)C)c5c4)n3)nc2)CC1` + C=CC(=O)N1CCN(c2nc(OCC3CCCN3C)nc3c(F)c(-c4nc(N)cc(C)c4C(F)(F)F)c(Cl)cc23)C(C)C1 showed an IC50 (second compound 0.00316 µM) of over 1 µM, an IC50 (second compound 0.01 µM) of over 1 µM and an IC50 (second compound 0.0316 µM) of over 1 µM. It also gave an IC50 (second compound 0.1 µM) of over 1 µM, an IC50 (second compound 0.316 µM) of over 1 µM and an IC50 (second compound 1 µM) of over 1 µM. For the same compound, the viability, T/C (second compound 0.00316 µM, first compound 0.00316 µM) was 111%, the viability, T/C (second compound 0.00316 µM, first compound 0.01 µM) was 104% and the viability, T/C [1] was 93.1%. The viability, T/C [2] was 88.8%, the viability, T/C [3] was 104% and the viability, T/C [4] was 98.3%. The viability, T/C (second compound 0.01 µM, first compound 0.00316 µM) was 97.5%, the viability, T/C (second compound 0.01 µM, first compound 0.01 µM) was 101% and the viability, T/C [7] was 93%. It also gave a viability, T/C [8] of 95.6%, a viability, T/C [9] of 96.2% and a viability, T/C [10] of 89.4%. It also gave a viability, T/C (second compound 0.0316 µM, first compound 0.00316 µM) of 100%, a viability, T/C (second compound 0.0316 µM, first compound 0.01 µM) of 101% and a viability, T/C [13] of 95.4%. The viability, T/C [14] was 93%, the viability, T/C [15] was 98.3% and the viability, T/C [16] was 87.8%. For the same compound, the viability, T/C (second compound 0.1 µM, first compound 0.00316 µM) was 106%, the viability, T/C (second compound 0.1 µM, first compound 0.01 µM) was 105% and the viability, T/C [19] was 90.3%. It also gave a viability, T/C [20] of 88.9%, a viability, T/C [21] of 91.5% and a viability, T/C [22] of 84.5%. For the same compound, the viability, T/C (second compound 0.316 µM, first compound 0.00316 µM) was 105%, the viability, T/C (second compound 0.316 µM, first compound 0.01 µM) was 100% and the viability, T/C [25] was 98.2%. For the same compound, the viability, T/C [26] was 89.7%, the viability, T/C [27] was 91.8% and the viability, T/C [28] was 84.3%. The viability, T/C (second compound 1 µM, first compound 0.00316 µM) was 102%, the viability, T/C (second compound 1 µM, first compound 0.01 µM) was 104% and the viability, T/C [31] was 100%. The viability, T/C [32] was 93%, the viability, T/C [33] was 79.7% and the viability, T/C [34] was 94%.

`C[C@@H](NC(=O)c1ncnc(N)c1Cl)c1ncc(C(=O)Nc2cc(C(F)(F)F)c(Cl)cn2)s1` + C=CC(=O)N1CCN(c2nc(OCC3CCCN3C)nc3c(F)c(-c4nc(N)cc(C)c4C(F)(F)F)c(Cl)cc23)C(C)C1 showed an IC50 (second compound 0.00316 µM) of over 10 µM, an IC50 (second compound 0.01 µM) of over 10 µM and an IC50 (second compound 0.0316 µM) of over 10 µM. The IC50 (second compound 0.1 µM) was over 10 µM, the IC50 (second compound 0.316 µM) was over 10 µM and the IC50 (second compound 1 µM) was over 10 µM. It also gave a viability, T/C [1] of 111%, a viability, T/C [2] of 114% and a viability, T/C [3] of 133%. It also gave a viability, T/C [4] of 111%, a viability, T/C [5] of 112% and a viability, T/C [6] of 104%. It also gave a viability, T/C [7] of 111%, a viability, T/C [8] of 115% and a viability, T/C [9] of 121%. It also gave a viability, T/C [10] of 114%, a viability, T/C [11] of 119% and a viability, T/C [12] of 98.4%. It also gave a viability, T/C [13] of 111%, a viability, T/C [14] of 118% and a viability, T/C [15] of 116%. It also gave a viability, T/C [16] of 117%, a viability, T/C [17] of 128% and a viability, T/C [18] of 101%. For the same compound, the viability, T/C [19] was 109%, the viability, T/C [20] was 109% and the viability, T/C [21] was 110%. The viability, T/C [22] was 117%, the viability, T/C [23] was 117% and the viability, T/C [24] was 91.8%. The viability, T/C [25] was 126%, the viability, T/C [26] was 122% and the viability, T/C [27] was 113%. It also gave a viability, T/C [28] of 125%, a viability, T/C [29] of 122% and a viability, T/C [30] of 97.1%. For the same compound, the viability, T/C [31] was 119%, the viability, T/C [32] was 116% and the viability, T/C [33] was 127%. For the same compound, the viability, T/C [34] was 133%, the viability, T/C [35] was 119% and the viability, T/C [36] was 97.7%.
